Counter-ions that a name gives are not always drawn. Like-named read-outs stand apart in the source and are kept apart here.

Assay [1] concerns influenza. The experiment in a line: Potency against influenza (test not specified).
Assay [2] concerns MDCK cells. Kind of assay: Cell growth assay (MTT) in MDCK cells. It counts as cell-based, canine. The note with it: Canis lupus familiaris, 2-3 days, read-out: IC50, concentration required to achieve a 50% reduction of optical density (cell growth). How it is done:
Effects of the pyridazine derivatives of the invention on cell growth were determined in MDCK cells in 96 well plates by a tetrazolium-based calorimetric method (R. Pauwels et al., J. Virol. Methods, 20, 309-321 (1988)). This assay detects the in situ reduction of 3-(4,5-dimethylthiazol-2-yl)-2,5-diphenyltetrazolium bromide (MTT) by viable cells. Approximately 1×10^4 cells were seeded per well and incubated with drug-containing growth media for 2-3 days (3-4 cell doublings). The drug concentration resulting in a reduction of optical density by 50% was determined.

The subject of assay [3] is influenza A/WSN virus. The experiment in a line: Plaque reduction in MDCK cells, influenza A/WSN.
Procedure: (§1) Compounds were evaluated for antiviral activity against influenza A/WSN, A/Victoria and B/Lee viruses by plaque reduction in Madin Darby canine kidney (MDCK) cells. Duplicate monolayers of MDCK cells in 6 well plates were washed free of protein-containing media, infected with 50-100 plaque-forming units of virus (0.4 ml. volume), and incubated at 37° C. for 60 minutes. After aspiration of the virus inoculum, a 0.6% agarose overlay (3 ml.) containing Eagle minimal essential media, trypsin (8 μg/ml.), and the appropriate drug dilution (final concentration of 1% DMSO) was added to the cell monolayer. Plates were incubated at 370° C. in a humidified atmosphere of 5% CO2 in air. After 48 hours, monolayers were fixed with glutaraldehyde, stained with 0.1% crystal violet and the plaques were counted. The percentage of plaque inhibition relative to the infected control (no drug) plates were calculated for each drug concentration and the 50% inhibitory concentration (IC50) was determined.
The target of assay [4] is influenza virus cleavage of cap 1 RNA (Influenza A virus, UniProt P03427+P15659). Kind of assay: Assay for cleavage of cap 1 AIMV RNA4 by influenza virus. It counts as biochemical. To be noted: read-out: IC50, 50% inhibition of influenza virus cleavage of cap 1 RNA.
The subject of assay [5] is influenza A/Victoria virus. The experiment in a line: Plaque reduction in MDCK cells, influenza A/Victoria.
Procedure: as §1
The target of assay [6] is influenza A/WSN virus transcriptase (Influenza A virus, UniProt P03427+P03430+P15659). Kind of assay: biochemical. The note with it: 45 minutes at 31° C, 1% DMSO; read-out: IC50, concentration required to achieve 50% inhibition of influenza A/WSN virus transcriptase activity.
Assay [7] has as its system influenza B/Lee virus. Kind of assay: Plaque reduction in MDCK cells, influenza B/Lee. To be noted: read-out: IC50, […], B/Lee, 48 hours.
Procedure: as §1
Where [8] appears, read: MDCK, 48 h, read-out: IC50, […], A/WSN, MDCK cells, 48 hours.
Setting [9] is: MDCK, 48 h, read-out: IC50, […], A/Victoria, MDCK cells, 48 hours.
Setting [10] is: read-out: IC50, […], A/WSN, MDCK cells, 48 hours.

`CC1=NN(c2ccc(C)c(S(N)(=O)=O)c2)C(=O)C(=O)C1=O` [2-methyl-5-(6-methyl-3,4,5-trioxo-2H,3H,4H,5H-pyridazinyl)benzenesulfonamide]: the potency against influenza result in assay [1] is listed as “significant potency”.
Same read-out and setting: the value for `CC1=NN(c2ccc(C(N)=O)cc2)C(=O)C(=O)C1=O` [4-(6-methyl-3,4,5-trioxo-2H,3H,4H,5H-pyridazinyl)benzenecarboxamide] was “significant potency”.
As to `CC1=NN(c2ccc3c(c2)S(=O)(=O)NC3=O)C(=O)C(=O)C1=O` [6-(6-methyl-3,4,5-trioxo-2H,3H,4H,5H-pyridazinyl)-1,1-dioxo-1,2-dihydro-1λ^6-benz<d>isothiazol-3-one], the potency against influenza result in assay [1] is “significant potency”.
As to `CC1=NN(c2ccc(C(=O)O)cc2C)C(=O)C(=O)C1=O` [Example 1, 3-methyl-4-(6-methyl-3,4,5-trioxo-2H,3H,4H,5H-pyridazinyl)benzoic acid], the IC50 in assay [2] was above 200 µM; in assay [3] (setting [8]), 50 µM; in assay [4] it was 0.2 µM; in assay [5] (setting [9]), 90 µM; in assay [6] it was 0.1 µM.
Take `CC1=NN(c2ccc(C(=O)O)cc2C)C(=O)C(=O)C1=O` [Example 2, Sodium Salt of 3-methyl-4-(6-methyl-3,4,5,-trioxo-2H,3H,4H,5H-pyridazinyl)benzoic acid]: the IC50 in assay [3] (setting [10]) is 100 µM; in assay [7] it was above 200 µM.
Turning to `CC1=NN(c2ccc(C(=O)O)c(Cl)c2)C(=O)C(=O)C1=O` [Example 3, 2-chloro-4-(6-methyl-3,4,5-trioxo-2H,3H,4H,5H-pyridazinyl)benzoic acid], the IC50 in assay [3] (setting [8]) worked out at 16 µM; in assay [5] (setting [9]), 50 µM.
On to `CC1=NN(c2ccc(S(N)(=O)=O)cc2)C(=O)C(=O)C1=O` [Example 4, 4-(6-methyl-3,4,5-trioxo-2H,3H,4H,5H-pyridazinyl)benzene sulfonamide], for which the IC50 is above 100 µM in assay [2]; 8 µM in assay [3] (setting [8]); 2 µM in assay [4]; 8 µM in assay [5] (setting [9]); 1 µM in assay [6].
In the case of `CC1=NN(c2ccc(S(N)(=O)=O)cc2)C(=O)C(=O)C1=O` [Example 5, Sodium Salt of 4-(6-methyl-3,4,5-trioxo-2H,3H,4H,5H-pyridazinyl)benzoic sulfonamide], the IC50 amounted to 8 µM in assay [3] (setting [10]); 11 µM in assay [5] (read-out: IC50, […], A/Victoria, MDCK cells, 48 hours); 30 µM in assay [7].
Regarding `CC1=NN(c2ccc(-c3nnn[nH]3)cc2)C(=O)C(=O)C1=O` [Example 6, 2-(4-tetrazolylphenyl) 2,3,4,5-tetrahydro-6-methyl-pyridazine-3,4,5-trione], the IC50 in assay [3] (setting [8]) came out at 1 µM; in assay [5] (setting [9]), 2 µM; in assay [6], 0.2 µM.
As to `CC1=NN(c2ccc(-c3nn[nH]n3)cc2)C(=O)C(=O)C1=O` [Example 7, Sodium Salt of 2-(4-tetrazolylphenyl) 2,3,4,5-tetrahydro-6-methyl-pyridazine-3,4,5-trione], the IC50 in assay [3] (setting [8]) is 2 µM.
Turning to `CC1=NN(c2ccc3[nH]ncc3c2)C(=O)C(=O)C1=O` [Example 8, 5-indazolyl-2,3,4,5-tetrahydro-6-methyl-pyridazine-3,4,5-trione], in assay [3] (setting [8]), the IC50 came to 50 µM.
Consider `CC1=NN(c2ccc3[nH]nnc3c2)C(=O)C(=O)C1=O` [Example 9, 5-benzotriazolyl-2,3,4,5-tetrahydro-6-methyl-pyridazine-3,4,5-trione], for which the IC50 in assay [3] (setting [8]) amounted to 20 µM.
Take `CC1=NN(c2ccc(S(=O)(=O)Nc3cccnc3)cc2)C(=O)C(=O)C1=O` [N-(3-pyridyl)-4-(6-methyl-3,4,5-trioxo-2H,3H,4H,5H-pyridazinyl)benzenesulfonamide]: the potency against influenza result in assay [1] is reported as “significant potency”.
Consider `CC(=O)NS(=O)(=O)c1ccc(N2N=C(C)C(=O)C(=O)C2=O)cc1` [N-acetyl-4-(6-methyl-3,4,S-trioxo-2H,3H,4H,5H-pyridazinyl)benzenesulfonamide], for which the potency against influenza entry in assay [1] is listed as “significant potency”.
`CNS(=O)(=O)c1ccc(N2N=C(C)C(=O)C(=O)C2=O)cc1` [N-methyl-4-(6-methyl-3,4,5-trioxo-2H,3H,4H,5H-pyridazinyl)benzenesulfonamide]: the potency against influenza result in assay [1] is listed as “significant potency”.
Turning to `CNS(=O)(=O)c1ccc(Cl)c(N2N=C(C)C(=O)C(=O)C2=O)c1` [N-methyl-4-chloro-3-(6-methyl-3,4,5-trioxo-2H,3H,4H,5H-pyridazinyl)benzenesulfonamide], the potency against influenza entry in assay [1] was “significant potency”.
For `CC1=NN(c2ccc(S(=O)(=O)Nc3ccccc3)cc2)C(=O)C(=O)C1=O` [N-phenyl-4-(6-methyl-3,4,5-trioxo-2H,3H,4H,5H-pyridazinyl)benzenesulfonamide], the potency against influenza entry in assay [1] was “significant potency”.

The values above are taken from US5821243A, “Compounds compositions and methods for treating influenza” (priority 1997, dated 1998).
